Legend:
Assay type in all cases: cell-based
[1] = test system: human prostate cancer cell line (DU145); test: MTT assay, tumor cell proliferation inhibition, DU145; conditions: DU145, MTT, 72 h; read-out: Tumor inhibition rate (IC50)
Description: (§1) Cell lines to be tested: human hepatoma cell line (HepG2), human lung cancer cell line (A549), human prostate cancer cell line (DU145), human breast cancer cell line (MCF-7), human neuroblastoma cell line (SH-SY5Y), human gastric mucosal cell line (Ges-1) and human embryonic lung fibroblast cell line (CCC-HPF-1) (the cells to be tested were purchased from the Cancer Hospital of Chinese Academy of Medical Sciences).
(§2) The cells in logarithmic growth phase were treated to prepare a single cell suspension, with the cell density adjusted, which was seeded in a 96-well cell culture plate. About 2×10^3 cells were contained in 100 μL per well, and cultured in a cell incubator at 37° C., 5% CO2, and saturated humidity for 24 h. The used medium was aspirated and abandoned, and then 100 μL of the target compound in different concentrations (0.1 μM-100 μM) were added for drug treatment. Five duplicate wells were prepared for each concentration. The background blank well, negative control well and positive control well were also prepared. All the wells were placed in a cell culture incubator at 37° C., 5% CO2, saturated humidity for another 72 h. Then, each well was added with 10 μL of MTT solution (5 mg/mL) and incubated for another 4 h. After that, each well was added with 100 μL of 10% SDS-0.1% NH4Cl (10% SDS purchased from Beijing Mengyimei Biotechnology Co., Ltd.) solution, and incubated at 37° C. for 10 h in the dark. Then, the absorbance OD was measured at 570 nm using a microplate reader at a reference wavelength of 650 nm. Cell proliferation inhibition was calculated according to the following formula: % inhibition=(ODcontrol−ODtreat)(ODcontrol−ODblank)×100. […] Each group was performed at least three times in parallel.

[2] = test system: human hepatoma cell line (HepG2); test: MTT assay, tumor cell proliferation inhibition, HepG2; conditions: 72 h, read-out: Tumor inhibition rate (IC50)
Description: as §1, §2

[3] = test system: human lung cancer cell line (A549); test: MTT assay, tumor cell proliferation inhibition, A549; conditions: for IC50: A549, MTT, 72 h, read-out: Tumor inhibition rate (IC50); for inhibitory activity on A549 (in words): MTT, summary of Table 1
Description: as §1, §2

[4] = test system: human breast cancer cell line (MCF-7); test: MTT assay, tumor cell proliferation inhibition, MCF-7; conditions: MCF-7, MTT, 72 h; read-out: Tumor inhibition rate (IC50)
Description: as §1, §2

[5] = test system: human neuroblastoma cell line (SH-SY5Y); test: MTT assay, tumor cell proliferation inhibition, SH-SY5Y; conditions: SH-SY5Y, 72 h, read-out: Tumor inhibition rate (IC50)
Description: as §1, §2

| IC50 [1] | IC50 [2] | IC50 [3] | IC50 [4] | IC50 [5] | Compound | inhibitory activity on A549 (in words) [3] |
| --- | --- | --- | --- | --- | --- | --- |
| > 100 µM | 19 µM | > 100 µM | > 100 µM | 20 µM | Fc1ccc(COc2cccc(Nc3ncnc4cc5c(cc34)OCCOCCOCCOCCO5)c2)cc1 [Compound 25, N-(3-((p-fluorophenyl)methoxy)phenyl)-6,7-(benzo-15-crown-5)-4-quinazolinamine] | – |
| > 100 µM | 48.1 µM | > 100 µM | > 100 µM | > 100 µM | O=[N+]([O-])c1ccc(COc2ccccc2Nc2ncnc3cc4c(cc23)OCCOCCOCCOCCO4)cc1 [Compound 30, N-(2-((4-nitrophenyl)methoxy)phenyl)-6,7-(benzo-15-crown-5)-4-quinazolinamine] | – |
| > 100 µM | > 100 µM | > 100 µM | > 100 µM | 22.8 µM | c1ccc(COc2cccc(Nc3ncnc4cc5c(cc34)OCCOCCOCCO5)c2)cc1 [Compound 21, N-(3-((phenyl)methoxy)phenyl)-6,7-(benzo-12-crown-4)-4-quinazolinamine] | – |
| > 100 µM | 60.8 µM | 29.9 µM | > 100 µM | 75.5 µM | O=[N+]([O-])c1ccc(COc2ccccc2Nc2ncnc3cc4c(cc23)OCCOCCOCCO4)cc1 [Compound 18, N-(2-((4-nitrophenyl)methoxy)phenyl)-6,7-(benzo-12-crown-4)-4-quinazolinamine] | – |
| > 100 µM | 19.4 µM | > 100 µM | 66.5 µM | 58.6 µM | O=[N+]([O-])c1ccc(COc2ccc(Nc3ncnc4cc5c(cc34)OCCOCCOCCO5)cc2)cc1 [Compound 20, N-(4-((4-nitrophenyl)methoxy)phenyl)-6,7-(benzo-12-crown-4)-4-quinazolinamine] | – |
| > 100 µM | > 100 µM | > 100 µM | > 100 µM | > 100 µM | FC(F)(F)c1ccc(COc2ccccc2Nc2ncnc3cc4c(cc23)OCCOCCOCCO4)cc1 [Compound 22, N-(2-((4-trifluoromethylphenyl)methoxy)phenyl)-6,7-(benzo-12-crown-4)-4-quinazolinamine] | – |
| > 100 µM | > 100 µM | > 100 µM | > 100 µM | > 100 µM | FC(F)(F)c1ccc(COc2ccc(Nc3ncnc4cc5c(cc34)OCCOCCOCCO5)cc2)cc1 [Compound 24, N-(4-((4-trifluoromethylphenyl)methoxy)phenyl)-6,7-(benzo-12-crown-4)-4-quinazolinamine] | – |
| > 100 µM | > 100 µM | > 100 µM | > 100 µM | > 100 µM | O=[N+]([O-])c1ccc(COc2cccc(Nc3ncnc4cc5c(cc34)OCCOCCOCCO5)c2)cc1 [Compound 19, N-(3-((4-nitrophenyl)methoxy)phenyl)-6,7-(benzo-12-crown-4)-4-quinazolinamine] | – |
| > 100 µM | 29.2 µM | 48.5 µM | > 100 µM | 24 µM | c1ccc(COc2ccccc2Nc2ncnc3cc4c(cc23)OCCOCCOCCOCCO4)cc1 [Compound 27, N-(2-((phenyl)methoxy)phenyl)-6,7-(benzo-15-crown-5)-4-quinazolinamine] | – |

Further lines, the compound ahead of its results:

| Compound | IC50 [1] | IC50 [2] | IC50 [3] | IC50 [4] | IC50 [5] | inhibitory activity on A549 (in words) [3] |
| --- | --- | --- | --- | --- | --- | --- |
| Fc1ccc(COc2ccccc2Nc2ncnc3cc4c(cc23)OCCOCCO4)cc1Cl [Compound 13, N-(2-((3-chloro,4-fluorophenyl)methoxy)phenyl)-6,7-(benzo-9-crown-3)-4-quinazolinamine] | 88.6 µM | > 100 µM | 9.43 µM | > 100 µM | > 100 µM | strong specific inhibitory activity |
| Fc1ccc(COc2cccc(Nc3ncnc4cc5c(cc34)OCCOCCO5)c2)cc1 [Compound 5, N-(3-((p-fluorophenyl)methoxy)phenyl)-6,7-(benzo-9-crown-3)-4-quinazolinamine] | > 100 µM | > 100 µM | 7.84 µM | 78.2 µM | 55.3 µM | strong specific inhibitory activity |
| O=[N+]([O-])c1ccc(COc2cccc(Nc3ncnc4cc5c(cc34)OCCOCCO5)c2)cc1 [Compound 2, N-(3-((4-nitrophenyl)methoxy)phenyl)-6,7-(benzo-9-crown-3)-4-quinazolinamine] | > 100 µM | 65.3 µM | 15.5 µM | 42.4 µM | 36.6 µM | – |
| Fc1ccc(COc2cccc(Nc3ncnc4cc5c(cc34)OCCOCCO5)c2)cc1Cl [Compound 14, N-(3-((3-chloro,4-fluorophenyl)methoxy)phenyl)-6,7-(benzo-9-crown-3)-4-quinazolinamine] | 90.1 µM | 43.6 µM | > 100 µM | > 100 µM | 22.7 µM | – |
| Fc1ccc(COc2ccc(Nc3ncnc4cc5c(cc34)OCCOCCO5)cc2)cc1Cl [Compound 15, N-(4-((3-chloro,4-fluorophenyl)methoxy)phenyl)-6,7-(benzo-9-crown-3)-4-quinazolinamine] | > 100 µM | 76.5 µM | > 100 µM | > 100 µM | > 100 µM | – |
| Fc1ccc(COc2ccccc2Nc2ncnc3cc4c(cc23)OCCOCCO4)cc1 [Compound 4, N-(2-((p-fluorophenyl)methoxy)phenyl)-6,7-(benzo-9-crown-3)-4-quinazolinamine] | > 100 µM | > 100 µM | 14.4 µM | > 100 µM | 84.5 µM | – |
| N#Cc1ccc(COc2cccc(Nc3ncnc4cc5c(cc34)OCCOCCOCCO5)c2)cc1 [Compound 10, N-(3-((4-cyanophenyl)methoxy)phenyl)-6,7-(benzo-12-crown-4)-4-quinazolinamine] | > 100 µM | > 100 µM | > 100 µM | > 100 µM | > 100 µM | – |
| FC(F)(F)c1ccc(COc2cccc(Nc3ncnc4cc5c(cc34)OCCOCCO5)c2)cc1 [Compound 8, N-(3-((4-trifluoromethylphenyl)methoxy)phenyl)-6,7-(benzo-9-crown-3)-4-quinazolinamine] | > 100 µM | > 100 µM | > 100 µM | > 100 µM | 19.3 µM | – |
| Fc1ccc(COc2ccc(Nc3ncnc4cc5c(cc34)OCCOCCO5)cc2)cc1 [Compound 6, N-(4-((p-fluorophenyl)methoxy)phenyl)-6,7-(benzo-9-crown-3)-4-quinazolinamine] | > 100 µM | > 100 µM | 43.3 µM | 65.2 µM | 82.7 µM | – |
| FC(F)(F)c1ccc(COc2ccccc2Nc2ncnc3cc4c(cc23)OCCOCCO4)cc1 [Compound 7, N-(2-((4-trifluoromethylphenyl)methoxy)phenyl)-6,7-(benzo-9-crown-3)-4-quinazolinamine] | > 100 µM | 87.4 µM | > 100 µM | > 100 µM | > 100 µM | – |
| FC(F)(F)c1ccc(COc2ccc(Nc3ncnc4cc5c(cc34)OCCOCCO5)cc2)cc1 [Compound 9, N-(4-((4-trifluoromethylphenyl)methoxy)phenyl)-6,7-(benzo-9-crown-3)-4-quinazolinamine] | > 100 µM | > 100 µM | > 100 µM | > 100 µM | 30.4 µM | – |

From patent US11504371B2, “Quinazolines compound, preparation method therefor and application thereof” (Beijing Normal University, priority 2017, dated 2022)
